Measured values: PubChem BioAssay AID2060503 (Molecular Pharmacology Branch, DTP, NCI, 2025)
Where “and” joins values, the source holds several entries; their conditions need not be identical. Equal values may be shown once.

Test system: 817829-284-R-J1-PDC complex spheroids, viability
Assay: Anticancer human tumor 817829-284-R-J1-PDC patient-derived colon adenocarcinoma cell line growth inhibition [GQUAD]
Details: for viability, T/C: stronger effect = lower value
Excerpt: DNA G-quadruplex Stabilizer Agents in Combinations in Complex Spheroids
A high-throughput screen of multi-cell type tumor spheroids was designed to identify active combinations of DNA G-quadruplex stabilizer agents and targeted small molecules. Complex spheroids include a stromal component modeled by human endothelial cells (HUVEC) and fibroblasts modeled by human mesenchymal stem cells (MSCs). The concentration ranges selected for each drug and investigational agent were based upon clinically achievable concentrations if the clinical Cmax of the agent was known.
Compounds. The drugs and investigational agents: pidnarulex (CX-5461; NSC782164), APTO-253 (NSC789042), BRACO-19 (NSC847499), peposertib (NSC802822), ceralasertib (NSC780249), elimusertib (NSC800525), camonsertib (NSC841442), AZD-1390 (NSC803789), olaparib (NSC753686), talazoparib (NSC767125), ART-558 (NSC835418), sotorasib (NSC818433), MRTX-1133 (NSC836407), SN-38 (NSC673596), topotecan (NSC609699), etoposide (NSC141540), doxorubicin (NSC123127), gemcitabine (NSC613327), 5-fluorouracil (NSC19893), paclitaxel (NSC125973), vemurafenib (NSC761431), panobinostat (NSC761190), R-306465 (JNJ-16241199; NSC773264), adavosertib (NSC754352), TP-3654 (NSC805149), carboplatin (NSC241240), KSQ-4279 (NSC840948), and staurosporine (NSC755774) were obtained from the National Cancer Institute (NCI) Developmental Therapeutics Program Chemical Repository (34). The FDA-approved anticancer drug set is available from the NCI Developmental Therapeutics Program. […] The stock solutions were prepared in dimethyl sulfoxide (DMSO, Sigma-Aldrich, St. Louis, MO, cat. D2650) at 800-fold the tested concentration and stored at -70 degrees C prior to their use. All drugs and investigational agents were tested over a range starting from a high concentration at or near the clinical Cmax and decreasing in half-log increments. If the clinical Cmax for an agent had not been determined, the highest concentration tested was 10 microM.
2.3 Cell Culture. All cells were maintained in an incubator at 37 degrees C and 5% CO2 with 95% humidity. The PDC lines were cultured according to standard operating procedures established by the NCI PDMR. All PDCs were thawed and cultured in Matrigel-coated flasks prepared with a working solution of 1X Ham's F-12 nutrient mix, without supplementation (Invitrogen, cat. 11765054), 100 U/mL penicillin-streptomycin (Invitrogen, cat. 15140122), and 2.5% Matrigel (Corning Inc., cat. 354248) for the first three passages. The 857933-349-R-J2-PDC line was cultured in 6C/Colon 1B media, which includes advanced DMEM/F-12 (Thermo Fisher Scientific, cat. 12634028), 10 mM HEPES (Thermo Fisher Scientific, cat. 15630080), 1X GlutaMAX supplement (Thermo Fisher Scientific, cat. 35050061), 0.1 mg/mL primocin (InvivoGen, cat. ant-pm-2), 10% defined fetal bovine serum, heat inactivated (HyClone Laboratories Inc., cat. SH30070.03HI), 50% L-WRN conditioned media (ATCC, cat. CRL-3276), 1.25 mM N-Acetyl-L-cysteine (Sigma-Aldrich, cat. A9165), 10 mM nicotinamide (Sigma-Aldrich, cat. N0636), 1X B-27 supplement (Thermo Fisher Scientific, cat. 17504044), 1X N-2 supplement (Thermo Fisher Scientific, cat. 17502048), 10 microM Y-27632 dihydrochloride (Tocris Bioscience, cat. 1254), and 50 ng/mL human EGF recombinant protein (Thermo Fisher Scientific, cat. PHG0311). The 485176-168-R4-J1-PDC line was cultured in Panc media, which includes all 6C/Colon 1B media components plus 100 ng/mL human FGF-10 (Thermo Fisher Scientific, cat. 100-26), 500 nM SB-431542 (Selleckchem, cat. S1067), and gastrin (Tocris, cat. 3006).
[…]

[1] = curve of first compound, second compound 0.0316 µM
[2] = curve of first compound, second compound 0.1 µM
[3] = curve of first compound, second compound 0.316 µM
[4] = curve of first compound, second compound 1 µM
[5] = curve of first compound, second compound 3.16 µM
[6] = curve of first compound, second compound 10 µM
[7] = second compound 0.0316 µM, first compound 0.0316 µM
[8] = second compound 0.0316 µM, first compound 0.316 µM
[9] = second compound 0.1 µM, first compound 0.0316 µM
[10] = second compound 0.1 µM, first compound 0.316 µM
[11] = second compound 0.316 µM, first compound 0.0316 µM
[12] = second compound 0.316 µM, first compound 0.316 µM
[13] = second compound 1 µM, first compound 0.0316 µM
[14] = second compound 1 µM, first compound 0.316 µM
[15] = second compound 3.16 µM, first compound 0.0316 µM
[16] = second compound 3.16 µM, first compound 0.316 µM
[17] = second compound 10 µM, first compound 0.0316 µM
[18] = second compound 10 µM, first compound 0.316 µM
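Further: spheroids exposed to agents for 7 days before readout.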
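Wherever viability, T/C is given: percent viability relative to DMSO vehicle control taken as 100%.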

CC[C@@]1(O)C(=O)OCc2c1cc1n(c2=O)Cc2cc3c(CN(C)C)c(O)ccc3nc2-1 + CN(C)c1ccc(Nc2c3ccc(NC(=O)CCN4CCCC4)cc3nc3cc(NC(=O)CCN4CCCC4)ccc23)cc1
IC50 [1]: 67.8 nM | IC50 [2]: 59 nM | IC50 [3]: 67.9 nM | IC50 [4]: 63.7 nM | IC50 [5]: 68.3 nM | IC50 [6]: 75.7 nM | viability, T/C (second compound 0.0316 µM, first compound 0.000999 µM): 80.2% | viability, T/C (second compound 0.0316 µM, first compound 0.00316 µM): 104% | viability, T/C (second compound 0.0316 µM, first compound 0.00999 µM): 94.8% | viability, T/C [7]: 65.9% | viability, T/C (second compound 0.0316 µM, first compound 0.0999 µM): 45.4% | viability, T/C [8]: 35.5% | viability, T/C (second compound 0.1 µM, first compound 0.000999 µM): 97.1% | viability, T/C (second compound 0.1 µM, first compound 0.00316 µM): 122% | viability, T/C (second compound 0.1 µM, first compound 0.00999 µM): 108% | viability, T/C [9]: 59.8% | viability, T/C (second compound 0.1 µM, first compound 0.0999 µM): 44.5% | viability, T/C [10]: 38.5% | viability, T/C (second compound 0.316 µM, first compound 0.000999 µM): 89.7% | viability, T/C (second compound 0.316 µM, first compound 0.00316 µM): 123% | viability, T/C (second compound 0.316 µM, first compound 0.00999 µM): 107% | viability, T/C [11]: 66.7% | viability, T/C (second compound 0.316 µM, first compound 0.0999 µM): 46.4% | viability, T/C [12]: 35.6% | viability, T/C (second compound 1 µM, first compound 0.000999 µM): 111% | viability, T/C (second compound 1 µM, first compound 0.00316 µM): 108% | viability, T/C (second compound 1 µM, first compound 0.00999 µM): 105% | viability, T/C [13]: 62.9% | viability, T/C (second compound 1 µM, first compound 0.0999 µM): 45.9% | viability, T/C [14]: 34% | viability, T/C (second compound 3.16 µM, first compound 0.000999 µM): 114% | viability, T/C (second compound 3.16 µM, first compound 0.00316 µM): 99.9% | viability, T/C (second compound 3.16 µM, first compound 0.00999 µM): 101% | viability, T/C [15]: 67.7% | viability, T/C (second compound 3.16 µM, first compound 0.0999 µM): 41.5% | viability, T/C [16]: 32.4% | viability, T/C (second compound 10 µM, first compound 0.000999 µM): 102% | viability, T/C (second compound 10 µM, first compound 0.00316 µM): 101% | viability, T/C (second compound 10 µM, first compound 0.00999 µM): 84% | viability, T/C [17]: 65.8% | viability, T/C (second compound 10 µM, first compound 0.0999 µM): 45.6% | viability, T/C [18]: 30.3%

COc1cccc2c1C(=O)c1c(O)c3c(c(O)c1C2=O)CC(O)(C(=O)CO)CC3OC1CC(N)C(O)C(C)O1 (stereo unspecified)
viability, T/C (compound 0.0316 µM): 100% and 82% and 106% | viability, T/C (compound 0.1 µM): 32.7% and 42.4% and 30.9% | viability, T/C (compound 0.316 µM): 30.1% and 39% and 26.2% | viability, T/C (compound 1 µM): 9.58% and 10.5% and 8.06% | viability, T/C (compound 3.16 µM): 0.57% and 0.58% and 0.61% | viability, T/C (compound 10 µM): 0.32% and 0.4% and 0.19% | IC50 (curve of compound): 84.7 nM and 99.1 nM and 82.1 nM

CCCS(=O)(=O)Nc1ccc(F)c(C(=O)c2c[nH]c3ncc(-c4ccc(Cl)cc4)cc23)c1F + CN(C)c1ccc(Nc2c3ccc(NC(=O)CCN4CCCC4)cc3nc3cc(NC(=O)CCN4CCCC4)ccc23)cc1
IC50 [1]: 5750 nM | IC50 [2]: 5660 nM | IC50 [3]: 5880 nM | IC50 [4]: 5680 nM | IC50 [5]: 5320 nM | IC50 [6]: 1470 nM | viability, T/C [7]: 113% | viability, T/C (second compound 0.0316 µM, first compound 0.1 µM): 112% | viability, T/C [8]: 107% | viability, T/C (second compound 0.0316 µM, first compound 1 µM): 98.5% | viability, T/C (second compound 0.0316 µM, first compound 3.16 µM): 80.8% | viability, T/C (second compound 0.0316 µM, first compound 10 µM): 22.4% | viability, T/C [9]: 98.9% | viability, T/C (second compound 0.1 µM, first compound 0.1 µM): 116% | viability, T/C [10]: 100% | viability, T/C (second compound 0.1 µM, first compound 1 µM): 102% | viability, T/C (second compound 0.1 µM, first compound 3.16 µM): 79.1% | viability, T/C (second compound 0.1 µM, first compound 10 µM): 21.5% | viability, T/C [11]: 107% | viability, T/C (second compound 0.316 µM, first compound 0.1 µM): 115% | viability, T/C [12]: 97.7% | viability, T/C (second compound 0.316 µM, first compound 1 µM): 111% | viability, T/C (second compound 0.316 µM, first compound 3.16 µM): 84% | viability, T/C (second compound 0.316 µM, first compound 10 µM): 20.9% | viability, T/C [13]: 109% | viability, T/C (second compound 1 µM, first compound 0.1 µM): 110% | viability, T/C [14]: 104% | viability, T/C (second compound 1 µM, first compound 1 µM): 98% | viability, T/C (second compound 1 µM, first compound 3.16 µM): 79.8% | viability, T/C (second compound 1 µM, first compound 10 µM): 22.2% | viability, T/C [15]: 106% | viability, T/C (second compound 3.16 µM, first compound 0.1 µM): 112% | viability, T/C [16]: 95.6% | viability, T/C (second compound 3.16 µM, first compound 1 µM): 96.1% | viability, T/C (second compound 3.16 µM, first compound 3.16 µM): 76.3% | viability, T/C (second compound 3.16 µM, first compound 10 µM): 19.1% | viability, T/C [17]: 94.4% | viability, T/C (second compound 10 µM, first compound 0.1 µM): 87.3% | viability, T/C [18]: 63.2% | viability, T/C (second compound 10 µM, first compound 1 µM): 66.6% | viability, T/C (second compound 10 µM, first compound 3.16 µM): 32.8% | viability, T/C (second compound 10 µM, first compound 10 µM): 7.36%
